Legend:
[1] = Solubility in water at 20° C.; assay type: physicochemical
[2] = Stability of aqueous catalyst salt solutions (UV/Vis of 1000× diluted solutions); assay type: physicochemical; settings: 2 weeks; for precipitate formation: pH 2 to 5, 37° C.
Experimental: Stability of aqueous solutions of chloride, sulphate and acetate salts are provided. Solutions of the bleach catalyst with chloride, sulphate and acetate anion were brought to pH 2, 3, 4 and 5 by hydrochloric acid, sulphuric acid and acetic acid respectively. For the acetate this could only give pH 5. For the lower pH values sulphuric acid was used in the case of acetate. The solutions were kept at 37° C. and after 2 weeks the stability was monitored from the absorptions in the UV/Vis spectra of 1000× diluted solutions.

[3] = Bleaching of softwood D0 pulp with H2O2 and catalyst, whiteness; settings: 2.5 microM catalyst, 10 kg/t H2O2, 8 kg/t NaOH, 50° C., 1 h, 5% consistency; SD 0.3 points
Experimental: Softwood chemical mill pulp obtained after the D0 bleaching stage (abbreviated as softwood D0 pulp) was used. The bleaching experiments were conducted on small scale in 100 ml vessels using the pulps at 5% consistency (i.e., 5% oven dry wood pulp; 95% aqueous bleaching liquor). The mixture contained 2.5 microM of the catalyst (as chloride, sulfate, acetate and PF6 salts—see Table), 1 kg/t of MgSO4, 8 kg/t of NaOH and 10 kg/t of H2O2 (kg/t: kg chemicals per ton oven dry pulp). The mixture was manually stirred to ensure good distribution of the bleaching chemicals. Then the vessel was placed in a water bath and stirred regularly at 50° C. for 1 h. All experiments were carried out at least 6 times. As a reference the experiment was conducted without catalyst. The dosages and exact reaction conditions are given in the sections below. After the allocated bleaching times the pulp batches were removed from the vessels, filtered using a Buchner funnel, and washed with 100 ml of water. From the resultant samples of bleached pulp 4×4 cm discs were made having a flat surface on one side. The softwood D0 pulp samples were dried using a L&W Rapid Dryer (Lorentzen and Wetter) at 90° C. for 20 minutes. Whiteness of the bleached pulps was determined using L, a*, b* values as defined by CIE (Commission Internationale de l'Eclairage) of the dried pad was measured using a Minolta spectrophotometer.

solubility in water [1]	% (UV/Vis) remaining ([2]; pH 2, 37° C.) [%]	precipitate formation [2]	% (UV/Vis) remaining ([2]; pH 3, 37° C.) [%]	% (UV/Vis) remaining ([2]; pH 4, 37° C.) [%]	% (UV/Vis) remaining ([2]; pH 5, 37° C.) [%]	water solubility [1] [g per liter]	Structure (SMILES)	Whiteness [3]
more than 70 gram/Liter	87	(No precipitate is formed)	91	93	95		CC(=O)[O-].CC(=O)[O-].CN1CCN(C)CCN(C)CC1.CN1CCN(C)CCN(C)CC1.[Mn+4].[Mn+4].[O-2].[O-2].[O-2] [[Mn2O3(Me3—TACN)2]•(OAc)2, [Mn2O3(Me3-TACN)2].(OAc)2]	84.0
1.08 % (w/w)						10.8	CN1CCN(C)CCN(C)CC1.CN1CCN(C)CCN(C)CC1.F[P-](F)(F)(F)(F)F.F[P-](F)(F)(F)(F)F.[Mn+4].[Mn+4].[O-2].[O-2].[O-2] [[Mn2O3(Me3—TACN)2]•(PF6)2, [Mn2O3(Me3-TACN)2].(PF6)2]	84.4
	100	(Precipitate is formed at all pH's)	100	97	94		CN1CCN(C)CCN(C)CC1.CN1CCN(C)CCN(C)CC1.[Cl-].[Cl-].[Mn+4].[Mn+4].[O-2].[O-2].[O-2] [[Mn2O3(Me3—TACN)2]•Cl2, [Mn2O3(Me3-TACN)2].(Cl)2]	84.3
	78	(Precipitate only at pH = 5)	96	94	98		CN1CCN(C)CCN(C)CC1.CN1CCN(C)CCN(C)CC1.O=S(=O)([O-])[O-].[Mn+4].[Mn+4].[O-2].[O-2].[O-2] [[Mn2O3(Me3—TACN)2]•SO4, [Mn2O3(Me3-TACN)2].SO4]	84.1
